From ChEMBL document CHEMBL4354805, “Discovery of MK-8719, a Potent O-GlcNAcase Inhibitor as a Potential Treatment for Tauopathies” (J Med Chem, 2019)

What was measured:
[1] = tested on: Rattus norvegicus; assay: Increase in O-protein AUC in rat brain at 10 mg/kg, po measured upto 24 hrs; format: ADME, organism-based; conditions: in vivo
[2] = tested on: MDR1; assay: Apparent permeability in pig LLC-PK1 cells transfected with MDR1; format: ADME, cell-based, Sus scrofa
[3] = target: T1, Beta-hexosaminidase subunit beta (Homo sapiens, UniProt P07686); assay: Inhibition of human beta hexosaminidase assessed as inhibitory constant using 4-methylumbelliferyl N-acetyl-beta-D-glucosaminide dihydrate as substrate measured every 60 sec for 45 mins by fluorescence spectrophotometry
T1 sequence (P07686 whole entry): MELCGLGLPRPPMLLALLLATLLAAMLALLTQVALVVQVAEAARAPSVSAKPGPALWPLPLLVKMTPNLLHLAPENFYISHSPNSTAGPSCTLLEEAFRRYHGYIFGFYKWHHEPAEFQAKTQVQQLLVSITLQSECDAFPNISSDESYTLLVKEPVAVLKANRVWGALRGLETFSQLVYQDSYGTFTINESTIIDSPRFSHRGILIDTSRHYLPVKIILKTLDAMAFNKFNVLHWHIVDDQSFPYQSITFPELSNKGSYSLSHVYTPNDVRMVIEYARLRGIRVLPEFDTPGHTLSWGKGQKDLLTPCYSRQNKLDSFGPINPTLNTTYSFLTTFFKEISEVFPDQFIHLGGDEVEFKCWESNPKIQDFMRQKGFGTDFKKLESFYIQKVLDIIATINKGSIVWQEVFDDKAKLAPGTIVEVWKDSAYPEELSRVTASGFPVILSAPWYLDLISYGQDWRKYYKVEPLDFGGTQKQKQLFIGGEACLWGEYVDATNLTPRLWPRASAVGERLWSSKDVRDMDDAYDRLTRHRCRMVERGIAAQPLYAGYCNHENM

[4] = AUCN in Wistar Han rat at 10 mg/kg, po; format: ADME, organism-based; conditions: in vivo
[5] = Clearance in Wistar Han rat at 2 mg/kg, iv; format: ADME, organism-based; conditions: in vivo
[6] = Volume of distribution at steady state in Wistar Han rat at 2 mg/kg, iv or 10 mg/kg, po; format: ADME, organism-based; conditions: in vivo, read-out: Vdss
[7] = Oral bioavailability in Wistar Han rat at 10 mg/kg; format: ADME, organism-based; conditions: in vivo
[8] = tested on: Rattus norvegicus; assay: Elevation of O-protein in rat brain at 3 mg/kg, po measured after 8 hrs relative to control; format: functional
[9] = Ratio of drug uptake in rat brain to plasma at 3 mg/kg, po measured after 8 hrs; format: ADME, organism-based; conditions: read-out: BPR
[10] = Ratio of drug uptake in rat brain to plasma at 3 mg/kg, po measured after 24 hrs; format: ADME, organism-based; conditions: read-out: BPR
[11] = Oral bioavailability in Beagle dog at 3 mg/kg; format: ADME, organism-based, Canis lupus familiaris; conditions: in vivo
[12] = Fraction unbound in Beagle dog plasma at 1 uM by equilibrium dialysis; format: ADME, cell-free, Canis lupus familiaris
[13] = Clearance in Beagle dog at 1 mg/kg, iv; format: ADME, organism-based, Canis lupus familiaris; conditions: in vivo
[14] = Volume of distribution at steady state in Beagle dog at 1 mg/kg, iv or 3 mg/kg, po; format: ADME, organism-based, Canis lupus familiaris; conditions: in vivo, read-out: Vdss
[15] = AUCN in rhesus monkey at 3 mg/kg, po; format: ADME, organism-based, Macaca mulatta; conditions: in vivo
[16] = Half life in rhesus monkey at 1 mg/kg, iv; format: ADME, organism-based, Macaca mulatta; conditions: in vivo
[17] = Volume of distribution at steady state in rhesus monkey at 1 mg/kg, iv or 3 mg/kg, po; format: ADME, organism-based, Macaca mulatta; conditions: in vivo, read-out: Vdss
[18] = Oral bioavailability in rhesus monkey at 3 mg/kg; format: ADME, organism-based, Macaca mulatta; conditions: in vivo
[19] = Ratio of drug level in dog blood to plasma; format: ADME, cell-free, Canis lupus familiaris; conditions: whole blood
[20] = target: Cav1.2 (Homo sapiens, UniProt Q13936); assay: Inhibition of Cav1.2 (unknown origin) at 30 uM
[21] = target: IKr (KCNH2) (Homo sapiens, UniProt Q12809); assay: Inhibition of IKr (unknown origin) at 30 uM
[22] = target: T2, IKs (KCNQ1) (Homo sapiens, UniProt P51787); assay: Inhibition of IKs (unknown origin) at 30 uM
T2 sequence (P51787 whole entry): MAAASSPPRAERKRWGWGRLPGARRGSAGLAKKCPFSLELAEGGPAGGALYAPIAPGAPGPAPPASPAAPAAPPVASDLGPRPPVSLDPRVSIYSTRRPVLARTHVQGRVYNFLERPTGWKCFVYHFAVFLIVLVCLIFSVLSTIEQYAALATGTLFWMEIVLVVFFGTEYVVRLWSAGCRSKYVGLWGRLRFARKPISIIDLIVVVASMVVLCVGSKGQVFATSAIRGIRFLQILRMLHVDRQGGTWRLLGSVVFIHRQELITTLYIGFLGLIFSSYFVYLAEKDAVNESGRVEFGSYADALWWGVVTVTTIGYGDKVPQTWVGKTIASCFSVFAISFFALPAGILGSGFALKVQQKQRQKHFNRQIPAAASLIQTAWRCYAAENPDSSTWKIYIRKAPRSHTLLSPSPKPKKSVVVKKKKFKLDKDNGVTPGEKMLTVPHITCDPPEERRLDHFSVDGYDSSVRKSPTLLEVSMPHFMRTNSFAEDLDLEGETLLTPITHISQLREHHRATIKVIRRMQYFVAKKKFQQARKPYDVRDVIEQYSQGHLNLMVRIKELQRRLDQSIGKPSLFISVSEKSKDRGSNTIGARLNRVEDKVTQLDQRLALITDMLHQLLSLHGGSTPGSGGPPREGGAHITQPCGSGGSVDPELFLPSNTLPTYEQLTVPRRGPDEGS

[23] = Cmax in telemetered rat at 380 mg/kg, po; format: ADME, organism-based; parameters: dose 380 mg/kg, route oral; conditions: in vivo
[24] = Toxicity in rat assessed as change in physical signs at 1000 mg/kg, po administered for 7 days and measured on day 8; format: organism-based; conditions: in vivo, 168 h
[25] = Toxicity in rat assessed as change in serum chemistry at 1000 mg/kg, po administered for 7 days and measured on day 8; format: organism-based; conditions: in vivo, 168 h
[26] = Toxicity in rat assessed as change in histomorphology at 1000 mg/kg, po administered for 7 days and measured on day 8; format: organism-based; conditions: in vivo, 168 h
[27] = AUC (0 to 24 hrs) in rat assessed as change in histomorphology at 1000 mg/kg, po administered for 7 days and measured on day 8; format: ADME, organism-based; parameters: time < 24 hr, dose 1000 mg/kg, route oral; conditions: in vivo

Sequence of IKr (KCNH2) (Q12809 whole entry): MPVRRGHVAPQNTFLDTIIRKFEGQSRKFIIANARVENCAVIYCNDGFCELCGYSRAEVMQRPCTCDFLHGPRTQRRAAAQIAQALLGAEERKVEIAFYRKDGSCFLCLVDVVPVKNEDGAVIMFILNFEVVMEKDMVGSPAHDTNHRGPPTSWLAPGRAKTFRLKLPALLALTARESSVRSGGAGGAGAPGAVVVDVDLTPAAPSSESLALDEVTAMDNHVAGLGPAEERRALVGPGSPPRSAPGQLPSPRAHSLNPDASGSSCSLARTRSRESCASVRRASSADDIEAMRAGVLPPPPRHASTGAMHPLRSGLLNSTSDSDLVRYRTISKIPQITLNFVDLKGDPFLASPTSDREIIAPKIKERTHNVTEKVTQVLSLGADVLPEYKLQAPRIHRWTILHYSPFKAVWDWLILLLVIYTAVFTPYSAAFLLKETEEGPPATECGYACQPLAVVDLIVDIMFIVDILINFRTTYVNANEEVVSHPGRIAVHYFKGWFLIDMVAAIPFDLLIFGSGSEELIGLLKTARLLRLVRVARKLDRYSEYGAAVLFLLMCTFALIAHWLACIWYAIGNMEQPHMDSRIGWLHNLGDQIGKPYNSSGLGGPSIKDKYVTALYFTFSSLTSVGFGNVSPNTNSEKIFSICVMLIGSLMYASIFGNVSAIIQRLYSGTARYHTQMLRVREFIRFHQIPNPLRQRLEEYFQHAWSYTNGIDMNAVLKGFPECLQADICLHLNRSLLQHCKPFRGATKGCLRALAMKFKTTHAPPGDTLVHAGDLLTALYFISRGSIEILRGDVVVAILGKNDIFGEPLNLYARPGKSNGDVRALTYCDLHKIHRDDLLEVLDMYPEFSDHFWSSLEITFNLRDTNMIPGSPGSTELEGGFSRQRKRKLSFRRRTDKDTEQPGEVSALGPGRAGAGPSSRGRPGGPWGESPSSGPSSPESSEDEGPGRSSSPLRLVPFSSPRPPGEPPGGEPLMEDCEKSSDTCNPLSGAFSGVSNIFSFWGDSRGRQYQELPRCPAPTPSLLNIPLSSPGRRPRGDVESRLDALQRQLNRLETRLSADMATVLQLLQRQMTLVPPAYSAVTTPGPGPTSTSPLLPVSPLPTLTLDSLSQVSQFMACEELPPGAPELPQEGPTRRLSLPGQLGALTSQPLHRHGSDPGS
Sequence of Cav1.2 (Q13936 whole entry): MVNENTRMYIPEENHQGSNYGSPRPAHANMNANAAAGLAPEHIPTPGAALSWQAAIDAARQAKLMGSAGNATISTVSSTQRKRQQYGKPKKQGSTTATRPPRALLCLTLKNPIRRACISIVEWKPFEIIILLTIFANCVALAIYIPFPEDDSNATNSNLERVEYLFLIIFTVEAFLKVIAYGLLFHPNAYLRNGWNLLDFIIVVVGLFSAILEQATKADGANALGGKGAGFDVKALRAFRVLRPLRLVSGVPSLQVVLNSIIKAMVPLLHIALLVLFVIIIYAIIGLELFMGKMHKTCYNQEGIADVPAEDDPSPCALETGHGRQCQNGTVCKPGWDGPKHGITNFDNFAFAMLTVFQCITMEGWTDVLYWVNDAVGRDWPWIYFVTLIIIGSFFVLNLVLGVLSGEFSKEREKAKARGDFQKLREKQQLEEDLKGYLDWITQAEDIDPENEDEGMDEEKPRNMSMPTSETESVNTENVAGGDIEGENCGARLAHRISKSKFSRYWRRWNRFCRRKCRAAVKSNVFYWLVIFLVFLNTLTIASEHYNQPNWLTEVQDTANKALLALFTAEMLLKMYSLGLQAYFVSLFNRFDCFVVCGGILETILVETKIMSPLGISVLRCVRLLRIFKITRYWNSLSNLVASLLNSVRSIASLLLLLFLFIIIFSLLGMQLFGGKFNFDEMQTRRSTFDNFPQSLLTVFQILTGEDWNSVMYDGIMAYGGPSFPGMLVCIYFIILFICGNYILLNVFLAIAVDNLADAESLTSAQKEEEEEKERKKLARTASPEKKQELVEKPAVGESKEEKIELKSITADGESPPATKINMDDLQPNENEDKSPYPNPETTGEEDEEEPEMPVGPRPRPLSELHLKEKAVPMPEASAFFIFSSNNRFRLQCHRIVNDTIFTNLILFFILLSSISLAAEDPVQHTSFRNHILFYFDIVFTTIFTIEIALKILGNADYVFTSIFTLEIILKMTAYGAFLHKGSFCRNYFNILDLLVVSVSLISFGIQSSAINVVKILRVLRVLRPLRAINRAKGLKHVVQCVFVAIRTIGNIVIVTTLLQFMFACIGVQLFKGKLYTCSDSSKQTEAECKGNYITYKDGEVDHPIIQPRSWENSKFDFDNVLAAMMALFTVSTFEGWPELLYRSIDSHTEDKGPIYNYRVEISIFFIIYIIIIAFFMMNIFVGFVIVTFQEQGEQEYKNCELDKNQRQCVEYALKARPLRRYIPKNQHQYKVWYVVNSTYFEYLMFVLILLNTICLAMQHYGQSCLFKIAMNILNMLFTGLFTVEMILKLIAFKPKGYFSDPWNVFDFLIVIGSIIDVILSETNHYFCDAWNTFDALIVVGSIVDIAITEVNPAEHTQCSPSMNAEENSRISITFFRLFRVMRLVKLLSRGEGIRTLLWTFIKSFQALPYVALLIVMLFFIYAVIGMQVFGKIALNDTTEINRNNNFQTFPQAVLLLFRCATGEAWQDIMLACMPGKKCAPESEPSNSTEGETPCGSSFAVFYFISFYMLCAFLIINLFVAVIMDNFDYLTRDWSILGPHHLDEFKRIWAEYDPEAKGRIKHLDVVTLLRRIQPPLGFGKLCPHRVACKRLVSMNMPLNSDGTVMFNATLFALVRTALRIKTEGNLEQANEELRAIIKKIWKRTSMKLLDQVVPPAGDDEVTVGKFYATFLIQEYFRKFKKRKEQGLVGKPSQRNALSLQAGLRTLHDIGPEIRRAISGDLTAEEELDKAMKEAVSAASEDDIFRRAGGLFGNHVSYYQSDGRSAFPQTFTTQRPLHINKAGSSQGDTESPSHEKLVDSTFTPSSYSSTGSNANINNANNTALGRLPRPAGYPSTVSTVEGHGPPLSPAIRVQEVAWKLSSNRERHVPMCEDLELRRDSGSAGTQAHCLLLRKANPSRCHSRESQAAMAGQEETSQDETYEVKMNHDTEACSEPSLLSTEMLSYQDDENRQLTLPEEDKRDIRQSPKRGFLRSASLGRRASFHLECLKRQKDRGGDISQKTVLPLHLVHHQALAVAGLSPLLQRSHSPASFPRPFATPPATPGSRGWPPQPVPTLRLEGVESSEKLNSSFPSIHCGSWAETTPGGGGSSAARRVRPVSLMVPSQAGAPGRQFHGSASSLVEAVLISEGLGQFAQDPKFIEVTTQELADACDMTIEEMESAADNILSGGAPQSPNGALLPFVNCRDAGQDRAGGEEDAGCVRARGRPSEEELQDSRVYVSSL

CCNC1=N[C@@H]2[C@@H](O)[C@H](O)[C@@H](C(F)F)O[C@@H]2S1
fold change (FC) [1]: 31.42 | Papp [2]: 6.4 ×10⁻⁶ cm/s | Ki [3]: > 10 µM | AUC/dose [4]: 1.4 µM·kg·h/mg | clearance [5]: 36.7 mL/min/kg | Vd [6]: 3.7 L/kg | bioavailability [7]: 80% | fold change (FC) [8]: 2.06 | Kp at 8 h [9]: 1.84 | Kp at 24 h [10]: ≥ 20.5 | bioavailability [11]: 90% | fraction unbound at 1 µM [12]: > 0.99 | clearance [13]: 11.7 mL/min/kg | Vd [14]: 2.4 L/kg | AUC/dose [15]: 0.61 µM·kg·h/mg | half-life [16]: 84 min | Vd [17]: 3.1 L/kg | bioavailability [18]: 9% | blood plasma ratio [19]: 0.9 to 1.1 | inhibition at 30 µM [20]: < 50% | inhibition at 30 µM [21]: < 50% | inhibition at 30 µM [22]: < 50% | Cmax [23]: 110 µM | Activity [24]: Non-Toxic | Activity [25]: Non-Toxic | Activity [26]: Non-Toxic | AUC at 24 h [27]: 1340 µM·h
